4 substances from US4704380A, “Method of stimulating the growth of macrophage-like cells utilizing mitogenic peptides” (Washington University, priority 1987, dated 1987) can be followed below.

Holding throughout (assay type): cell-based
The test system of assay [1] is J774 murine macrophage-like cells. Nature of the assay: 3[H]-TdR incorporation in growth-arrested J774 cells. The protocol:
(§1) The growth stimulation of macrophage-like cells can be determined by measuring the thymidine uptake of the cells at varying concentrations of the mitogenic peptides of the present invention. This was determined for several macrophage-like cell lines including J774, P388D1, RAW and PU5. These are well-known murine cell lines available, for example, from the American Type Culture Collection, Rockville, Md.
^3 [H]-TdR incorporation. Various cell lines were plated in Dulbeccos's Modified Eagle Medium (DMEM) containing 10% fetal calf serum (FCS) in […] humidified atmosphere at 37° C. at an initial density of 5×10^5 per well in 24 well disposable plastic plates (Falcon, Oxnard, Calif.). Arrest of DNA synthesis (i.e., G0 /G1) was achieved by incubating the cells for 48 hours in serum-free DMEM containing 0.1% bovine serum albumin (BSA). The cells were then exposed to the peptide or to various […], or to FCS for 48 hours. Enhanced thymidine incorporation was assessed following a 2 hour pulse of N-methyl^3 [H]-TdR (1 μCi/ml). The cells were washed ×3 in PBS (phosphate buffered saline, pH 7.4) at 4, precipitated with 10% trichloroacetic acid (30 min at 4) and the insoluble material extracted ×2 with ETOH:ET2 O (3:1 v/v). The precipitate was solubilized in N NaOH and aliquots withdrawn for protein determinations using a dye-binding assay (Bio Rad Labs., Richmond, Calif.) and liquid scintillation spectrometry.
(§2) The various cell lines employed in these tests were the murine macrophage-like cell lines J774, P388D1, RAW and PU5. The various […] used in these tests were platelet-derived growth factor (PDGF), epidermal growth factor (EGF), fibroblast growth factor (FGF), and nerve growth factor (NGF). For background information on these known polypeptide growth factors see, for example, the recent review article by Kris et al., Biotechnology, February 1985, pp. 135-140; and the comprehensive review in Hormonal Proteins and Peptides, Ed. by Choh Hao Li, Vol. 12, "Growth Factors," Academic Press, 1984. EGF, NGF and FGF are commercially available from Biomedical Technologies, Cambridge, Massachusetts. In a representative test, 24 hours following exposure of the growth-arrested cells to optimal concentrations of the peptide (i.e., 10^-8 M), cell numbers inoreased approximately two-fold from a control value of […] cells/culture well. […] The results are set forth in FIG. 2 and in Table I, below. In FIG. 2, the baseline tritiated thymidine (^3 [H]-TdR) incorporation in quiescent J774 cells was 5000 cpm ± 420 s.e.m. (standard error of the mean) per well. The results are expressed as the mean of triplicate determinations.

For assay [2], the system named is growth-arrested murine macrophage-like cells. Nature of the assay: Cell number / proliferation of growth-arrested macrophage-like cells. As to conditions: for proliferation of macrophage-like cells: concentration ranges of up to 500 ng/ml.
From the text: as §2

Assay [3] relates to P388D1 murine macrophage-like cell line. Nature of the assay: 3[H]-TdR incorporation in growth-arrested P388D1 cells. The protocol: as §1
(§3) ^3 [H]-TdR incorporation. Various cell lines were plated in Dulbeccos's Modified Eagle Medium (DMEM) containing 10% fetal calf serum (FCS) in […] humidified atmosphere at 37° C. at an initial density of 5×10^5 per well in 24 well disposable plastic plates (Falcon, Oxnard, Calif.). Arrest of DNA synthesis (i.e., G0 /G1) was achieved by incubating the cells for 48 hours in serum-free DMEM containing 0.1% bovine serum albumin (BSA). The cells were then exposed to the peptide or to various […], or to FCS for 48 hours. Enhanced thymidine incorporation was assessed following a 2 hour pulse of N-methyl^3 [H]-TdR (1 μCi/ml). […]
(§4) The various cell lines employed in these tests were the murine macrophage-like cell lines J774, P388D1, RAW and PU5. […] The results are expressed as the mean of triplicate determinations.

In assay [4] the test system is RAW murine macrophage-like cell line. The assay can be described thus: 3[H]-TdR incorporation in growth-arrested RAW cells. The protocol: as §1, §3, §4
Assay [5] concerns PU5 murine macrophage-like cell line. Nature of the assay: 3[H]-TdR incorporation in growth-arrested PU5 cells. The protocol: as §1, §3, §4
Where [6] appears, read: J774, test (1), >500 ng per well (highest concentration tested), 48 hours exposure, mean ± s.e.m.

As for “EGF: epidermal growth factor, known polypeptide growth factor [reference compound]”, the “3[H]-TdR Incorporation/mg/Protein (% Increase)” value in assay [1] (setting [6]) is given as 5.2± 0.2%. Besides, in assay [2], the “proliferation of macrophage-like cells” value is “failed to elicit proliferation”.
For “H-YPPWNKNFTENDLL-OH [Peptide I, H-Tyr-Pro-Pro-Trp-Asn-Lys-Asn-Phe-Thr-Glu-Asn-Asp-Leu-Leu-OH]”, the “Conc./Well: concentration yielding optimal specific 3[H]-TdR incorporation” value in assay [1] (J774) is reported as 10^-8 M; in assay [3] (P388D1), 10^ -7 M; in assay [4], 10^ -8 M; in assay [5] (PU5) it was 10^ -6 M. The “3[H]-TdR Incorporation/mg/Protein (% Increase)” value in assay [1] (J774, test (1), 10^-8 M per well, 48 hours exposure, mean ± s.e.m. of triplicate cultures) turned out to be 140± 8.5%; in assay [1] (J774, test (2), 10^-8 M per well, mean ± s.e.m.), 190± 12%; in assay [3] (P388D1, test (2), 10^-7 M per well, mean ± s.e.m.) it was 226± 22%; in assay [4] (test (2), 10^-8 M per well, mean ± s.e.m.) it was 276± 18%; in assay [5] (PU5, test (2), 10^-6 M per well, mean ± s.e.m.), 112± 4.4%. Also, in assay [2] (24 hours after exposure of growth-arrested cells to 10^-8 M), the “increase in cell numbers over control” value is on record as “approximately two-fold”.
For the substance “NGF: nerve growth factor, known polypeptide growth factor [reference compound]”, the “3[H]-TdR Incorporation/mg/Protein (% Increase)” value in assay [1] (setting [6]) is 0± 0.5%. The “proliferation of macrophage-like cells” value in assay [2] was “failed to elicit proliferation”.
In the same order, the values of PDGF [reference compound] are 9.4± 0.3% and “failed to elicit proliferation”.
